The values that follow come from US20250304576A1 (Cancer Research Technology Limited, priority 2022, published 2025).

Test [1] addresses T1, Recombinant IKKα (Homo sapiens, UniProt O15111).
T1 construct: purchased Millipore, Dundee, UK
T1 sequence (O15111 1-745): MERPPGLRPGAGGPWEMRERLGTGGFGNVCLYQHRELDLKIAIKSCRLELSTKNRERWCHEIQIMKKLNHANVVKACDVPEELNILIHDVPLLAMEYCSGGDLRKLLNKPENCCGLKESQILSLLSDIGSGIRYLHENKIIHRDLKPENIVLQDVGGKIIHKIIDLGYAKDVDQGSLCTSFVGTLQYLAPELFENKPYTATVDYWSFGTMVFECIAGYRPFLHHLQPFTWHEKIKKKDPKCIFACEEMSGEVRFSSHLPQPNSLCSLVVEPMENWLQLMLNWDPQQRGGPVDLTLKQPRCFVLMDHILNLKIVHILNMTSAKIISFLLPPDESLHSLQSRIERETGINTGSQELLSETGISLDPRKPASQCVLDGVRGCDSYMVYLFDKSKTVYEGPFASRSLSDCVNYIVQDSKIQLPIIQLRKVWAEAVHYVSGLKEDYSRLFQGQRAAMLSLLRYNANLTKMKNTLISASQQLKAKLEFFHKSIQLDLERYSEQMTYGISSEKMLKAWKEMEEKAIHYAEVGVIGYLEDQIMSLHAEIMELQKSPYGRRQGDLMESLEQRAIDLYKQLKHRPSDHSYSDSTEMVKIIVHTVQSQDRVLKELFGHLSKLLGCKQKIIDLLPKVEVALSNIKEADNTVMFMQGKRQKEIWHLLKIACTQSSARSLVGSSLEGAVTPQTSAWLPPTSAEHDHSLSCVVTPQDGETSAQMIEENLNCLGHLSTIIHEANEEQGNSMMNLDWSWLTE
Description: DELFIA IKKα kinase assay (apparent Ki, Cheng-Prusoff). In kind it is biochemical. As to conditions: non-italicised figure: DELFIA assay. The essentials: (§1)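 Recombinant IKKα or IKKβ (37 nM) with 0.375 μM biotinylated IκB-α (Ser32) peptide and 40 μM ATP in 40 mM Tris-HCl pH 7.5, 20 mM MgCl2, 60 min at 30° C. Phospho-substrate captured on streptavidin and detected by anti-phospho-IκB-α plus europium anti-mouse IgG time-resolved fluorescence; apparent Ki via Cheng-Prusoff.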

Test [2] concerns the target T2, Recombinant IKKβ (Homo sapiens, UniProt O14920).
T2 construct: purchased Millipore, Dundee, UK
T2 sequence (O14920 1-756): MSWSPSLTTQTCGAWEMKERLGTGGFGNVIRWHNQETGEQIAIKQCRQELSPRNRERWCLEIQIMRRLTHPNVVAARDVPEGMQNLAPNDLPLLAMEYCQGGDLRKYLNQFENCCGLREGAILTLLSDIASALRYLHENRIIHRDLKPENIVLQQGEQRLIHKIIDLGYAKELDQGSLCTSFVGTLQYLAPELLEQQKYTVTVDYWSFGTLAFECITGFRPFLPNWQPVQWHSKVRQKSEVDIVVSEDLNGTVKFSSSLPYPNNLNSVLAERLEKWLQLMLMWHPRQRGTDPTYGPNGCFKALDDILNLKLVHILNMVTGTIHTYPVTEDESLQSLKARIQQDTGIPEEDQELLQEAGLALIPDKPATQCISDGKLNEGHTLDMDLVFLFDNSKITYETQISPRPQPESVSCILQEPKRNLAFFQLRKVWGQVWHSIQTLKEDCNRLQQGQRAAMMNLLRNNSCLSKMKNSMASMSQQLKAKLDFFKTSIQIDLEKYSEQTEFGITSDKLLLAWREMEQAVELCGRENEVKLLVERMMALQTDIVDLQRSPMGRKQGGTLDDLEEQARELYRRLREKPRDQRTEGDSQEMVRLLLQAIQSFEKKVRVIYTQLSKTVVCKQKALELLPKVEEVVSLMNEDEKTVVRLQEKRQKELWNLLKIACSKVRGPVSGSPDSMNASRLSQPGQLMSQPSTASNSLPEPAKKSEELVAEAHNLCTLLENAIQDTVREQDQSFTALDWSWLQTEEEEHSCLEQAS
Description: DELFIA IKKβ kinase assay (apparent Ki, Cheng-Prusoff). In kind it is biochemical. The note with it: non-italicised figure: DELFIA assay. The essentials: as §1

Consider `Nc1cc(-c2cc(-c3cccc(S(N)(=O)=O)c3)c3[nH]nc(N)c3c2)ccn1` [Example 114, 3-(3-Amino-5-(2-aminopyridin-4-yl)-1H-indazol-7-yl)benzenesulfonamide], for which the Ki in test [1] turned out to be 0.007 µM; in test [2], 0.461 µM.
As to `CS(=O)(=O)c1cccc(-c2cc(-c3ccnc(N)c3)cc3c(N)n[nH]c23)c1` [Example 115], the results for the Ki in test [1] and in test [2] were 0.079 µM and 2 µM, respectively.
Consider `Nc1cc(-c2cc(-c3cccc(CN4CCOCC4)c3)c3[nH]nc(N)c3c2)ccn1` [Example 116], for which the Ki in test [1] came to 0.162 µM; in test [2], 1.01 µM.
Take `Nc1cc(-c2cc(-c3ccc(O)cc3)c3[nH]nc(N)c3c2)ccn1` [Example 117, 4-(3-Amino-5-(2-aminopyridin-4-yl)-1H-indazol-7-yl)phenol]: the Ki in test [1] was found to be 0.017 µM; in test [2] it was 0.235 µM.
On to `Nc1cc(-c2cc(-c3ccc(CO)cc3)c3[nH]nc(N)c3c2)ccn1` [Example 118], for which the values for the Ki in test [1] and in test [2] were 0.029 µM and 0.406 µM, respectively.
Turning to `CN(C)c1ccc(-c2cc(-c3ccnc(N)c3)cc3c(N)n[nH]c23)cc1` [Example 119, 5-(2-Aminopyridin-4-yl)-7-(4-(dimethylamino)phenyl)-1H-indazol-3-amine], the Ki was 0.084 µM in test [1] and 2.51 µM in test [2].
Consider `NC(=O)c1ccc(-c2cc(-c3ccnc(N)c3)cc3c(N)n[nH]c23)cc1` [Example 120, 4-(3-Amino-5-(2-aminopyridin-4-yl)-1H-indazol-7-yl)benzamide], for which the Ki in test [1] came to 0.056 µM; in test [2], 1.59 µM.
Consider `Nc1cc(-c2cc(-c3ccc(S(N)(=O)=O)cc3)c3[nH]nc(N)c3c2)ccn1` [Example 121, 4-(3-Amino-5-(2-aminopyridin-4-yl)-1H-indazol-7-yl)benzenesulfonamide], for which the Ki in test [1] was 0.027 µM; in test [2], 1.48 µM.
On to `Nc1cc(-c2cc(-c3ccc(CN4CCOCC4)cc3)c3[nH]nc(N)c3c2)ccn1` [Example 122, 5-(2-Aminopyridin-4-yl)-7-(4-(morpholinomethyl)phenyl)-1H-indazol-3-amine], for which the Ki in test [1] was found to be 0.052 µM; in test [2], 1.26 µM.
In the same order, the values of `CC(C)(C)c1ccc(-c2cc(-c3ccnc(N)c3)cc3c(N)n[nH]c23)cc1` [Example 123, 5-(2-Aminopyridin-4-yl)-7-(4-(tert-butyl)phenyl)-1H-indazol-3-amine] are 0.16 µM and 1.5 µM.
The like results for `Nc1cc(-c2cc(-c3ccccc3Cl)c3[nH]nc(N)c3c2)ccn1` [Example 124, 5-(2-Aminopyridin-4-yl)-7-(2-chlorophenyl)-1H-indazol-3-amine] were, in that order, 0.224 µM and 1.76 µM.
On to `Nc1cc(-c2cc(-c3ccccc3CO)c3[nH]nc(N)c3c2)ccn1` [Example 125], for which the Ki in test [1] came to 0.183 µM; in test [2], 0.796 µM.
On to `Cc1cc(S(N)(=O)=O)ccc1-c1cc(-c2ccnc(N)c2)cc2c(N)n[nH]c12` [Example 126, 4-(3-Amino-5-(2-aminopyridin-4-yl)-1H-indazol-7-yl)-3-methylbenzenesulfonamide], for which the results for the Ki in test [1] and in test [2] were 0.571 µM and 5.03 µM, respectively.
On to `Nc1cc(-c2cc(-c3cccnc3)c3[nH]nc(N)c3c2)ccn1` [Example 127], for which the Ki amounted to 0.114 µM in test [1] and 1.68 µM in test [2].
In the case of `Nc1cc(-c2cc(-c3ccncc3)c3[nH]nc(N)c3c2)ccn1` [Example 128, 5-(2-Aminopyridin-4-yl)-7-(pyridin-4-yl)-1H-indazol-3-amine], the results for the Ki in test [1] and in test [2] were 0.035 µM and 1.3 µM, respectively.
Consider `Nc1cc(-c2cc(-c3ccsc3)c3[nH]nc(N)c3c2)ccn1` [Example 130, 5-(2-Aminopyridin-4-yl)-7-(thiophen-3-yl)-1H-indazol-3-amine], for which the Ki in test [1] turned out to be 0.043 µM; in test [2], 0.612 µM.
As to `Nc1cc(-c2cc(-c3cccs3)c3[nH]nc(N)c3c2)ccn1` [Example 131, 5-(2-Aminopyridin-4-yl)-7-(thiophen-2-yl)-1H-indazol-3-amine], the Ki in test [1] is 0.021 µM; in test [2] it was 0.224 µM.
With `Nc1cc(-c2cc(-c3cncs3)c3[nH]nc(N)c3c2)ccn1` [Example 132, 5-(2-Aminopyridin-4-yl)-7-(thiazol-5yl)-1H-indazol-3-amine], the values for the Ki in test [1] and in test [2] were 0.026 µM and 0.316 µM, respectively.
On to `Nc1cc(-c2cc(-c3ccn[nH]3)c3[nH]nc(N)c3c2)ccn1` [Example 133, 5-(2-Aminopyridin-4-yl)-7-(1H-pyrazol-5-yl)-1H-indazol-3-amine], for which the figures for the Ki in test [1] and in test [2] were 0.046 µM and 0.412 µM, respectively.
As to `CC(C)C#Cc1cc(-c2ccnc(N)c2)cc2c(N)n[nH]c12` [Example 134, 5-(2-Aminopyridin-4-yl)-7-(3-methylbut-1-yn-1-yl)-1H-indazol-3-amine], the Ki in test [1] worked out at 0.003 µM; in test [2], 0.3 µM.
The like results for `Nc1cc(-c2cc(C#Cc3ccccc3)c3[nH]nc(N)c3c2)ccn1` [Example 138, 5-(2-Aminopyridin-4-yl)-7-(phenylethynyl)-1H-indazol-3-amine] were, in that order, 0.081 µM and 5.03 µM.
With `Nc1cc(-c2cc(C#CCCO)c3[nH]nc(N)c3c2)ccn1` [Example 139, 4-(3-Amino-5-(2-aminopyridin-4-yl)-1H-indazol-7-yl)but-3-yn-1-ol], the Ki in test [1] is 0.186 µM; in test [2], 4.61 µM.
On to `CC1(C#Cc2cc(-c3ccnc(N)c3)cc3c(N)n[nH]c23)COC1` [Example 141, 5-(2-Aminopyridin-4-yl)-7-((3-methyloxetan-3-yl)ethynyl)-1H-indazol-3-amine], for which the Ki in test [1] stood at 0.014 µM; in test [2], 0.38 µM.
For the molecule `Nc1cc(-c2cc(C#CC3CCOCC3)c3[nH]nc(N)c3c2)ccn1` [Example 142, 5-(2-Aminopyridin-4-yl)-7-((tetrahydro-2H-pyran-4-yl)ethynyl)-1H-indazol-3-amine], the Ki in test [1] was found to be 0.02 µM; in test [2], 0.7 µM.
With `CC(C)(C)CCc1cc(-c2ccnc(N)c2)cc2c(N)n[nH]c12` [Example 144, 5-(2-Aminopyridin-4-yl)-7-(3,3-dimethylbutyl)-1H-indazol-3-amine], the results for the Ki in test [1] and in test [2] were 0.015 µM and 0.318 µM, respectively.
For the molecule `CC(C)(C)C#Cc1cc(-c2cc(N)ncc2F)cc2c(N)n[nH]c12` [Example 148, 5-(2-Amino-5-fluoropyridin-4-yl)-7-(3,3-dimethylbut-1-yn-1-yl)-1H-indazol-3-amine], the Ki in test [1] turned out to be 0.023 µM; in test [2], 2.33 µM.
On to `CC(C)(C)C#Cc1cc(-c2ccnc(N)c2F)cc2c(N)n[nH]c12` [Example 149, 5-(2-Amino-3-fluoropyridin-4-yl)-7-(3,3-dimethylbut-1-yn-1-yl)-1H-indazol-3-amine], for which the results for the Ki in test [1] and in test [2] were 0.008 µM and 0.22 µM, respectively.
In the case of `CC(C)(C)C#Cc1cc(-c2ccnc(NC3CC3)c2)cc2c(N)n[nH]c12` [Example 153, 5-(2-(Cyclopropylamino)pyridine-4-yl)-7-(3,3-dimethylbut-1-yn-1-yl)-1H-indazol-3-amine], the Ki in test [1] was 0.004 µM; in test [2], 0.1 µM.
As for `CC(C)(C)C#Cc1cc(-c2ccnc(NC3CCC3)c2)cc2c(N)n[nH]c12` [Example 154, 5-(2-(Cyclobutylamino)pyridin-4-yl)-7-(3,3-dimethylbut-1-yn-1-yl)-1H-indazol-3-amine], the Ki in test [1] turned out to be 0.12 µM; in test [2], 1.69 µM.
On to `CC(C)(C)C#Cc1cc(-c2ccnc(NC3COC3)c2)cc2c(N)n[nH]c12` [Example 155, 7-(3,3-Dimethylbut-1-yn-1-yl)-5-(2-(oxetan-3-ylamino)pyridin-4-yl)-1H-indazol-3-amine], for which the Ki in test [1] turned out to be 0.015 µM; in test [2], 0.784 µM.
